Measured values published in PubChem BioAssay (NCI).
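GI50 marks 50% less growth. TGI: total growth inhibition.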

Assays:
Test in all cases: growth of human tumour cells (NCI), 384-well format
HCT-15 colon = tested on: HCT-15 colon
MDA-MB-468 breast = tested on: MDA-MB-468 breast
KM12 colon = tested on: KM12 colon
BT-549 breast = tested on: BT-549 breast
HT29 colon = tested on: HT29 colon
CAKI-1 renal = tested on: CAKI-1 renal
PC-3 prostate = tested on: PC-3 prostate
NCI-H226 lung = tested on: NCI-H226 lung
SW-620 colon = tested on: SW-620 colon
RPMI-8226 leukemia = tested on: RPMI-8226 leukemia
NCI-H522 lung = tested on: NCI-H522 lung
T-47D breast = tested on: T-47D breast
A549 NSCLC = tested on: A549 NSCLC
OVCAR-5 ovarian = tested on: OVCAR-5 ovarian
EKVX NSCLC = tested on: EKVX NSCLC
IGROV1 ovarian = tested on: IGROV1 ovarian
SF-268 CNS = tested on: SF-268 CNS
NCI/ADR-RES ovarian = tested on: NCI/ADR-RES ovarian
MALME-3M melanoma = tested on: MALME-3M melanoma
MDA-MB-231 breast = tested on: MDA-MB-231 breast
COLO 205 colon = tested on: COLO 205 colon
UACC-257 melanoma = tested on: UACC-257 melanoma
U251 glioblastoma = tested on: U251 glioblastoma
LOX IMVI melanoma = tested on: LOX IMVI melanoma
SN12C renal = tested on: SN12C renal
SNB-19 CNS = tested on: SNB-19 CNS
MCF7 breast = tested on: MCF7 breast
NCI-H460 NSCLC = tested on: NCI-H460 NSCLC
UO-31 renal = tested on: UO-31 renal
SNB-75 CNS = tested on: SNB-75 CNS
HCC-2998 colon = tested on: HCC-2998 colon
MOLT-4 leukemia = tested on: MOLT-4 leukemia
OVCAR-3 ovarian = tested on: OVCAR-3 ovarian
K-562 leukemia = tested on: K-562 leukemia
MDA-MB-435 melanoma = tested on: MDA-MB-435 melanoma
SK-MEL-28 melanoma = tested on: SK-MEL-28 melanoma
HL-60(TB) leukemia = tested on: HL-60(TB) leukemia
A498 renal = tested on: A498 renal
NCI-H322M lung = tested on: NCI-H322M lung
SK-OV-3 ovarian = tested on: SK-OV-3 ovarian
SF-539 CNS = tested on: SF-539 CNS
SR leukemia = tested on: SR leukemia
HS 578T breast = tested on: HS 578T breast
HCT-116 colon = tested on: HCT-116 colon
RXF 393 renal = tested on: RXF 393 renal
SK-MEL-5 melanoma = tested on: SK-MEL-5 melanoma

COc1cccc(OCCCN)c1-c1cc(Nc2cnc(C#N)cn2)n[nH]1
GI50 (HCT-15 colon): 12.1 nM | TGI (HCT-15 colon): 28.8 nM | TGI (MDA-MB-468 breast): 11.6 nM | TGI (KM12 colon): 86.7 nM | TGI (BT-549 breast): 0.0242 µM | GI50 (HT29 colon): 19.9 nM | TGI (HT29 colon): 145 nM | GI50 (CAKI-1 renal): 35.4 nM | TGI (CAKI-1 renal): 2620 nM | GI50 (PC-3 prostate): 55.9 nM | TGI (PC-3 prostate): 13.2 µM | GI50 (NCI-H226 lung): 5.36 µM | TGI (NCI-H226 lung): 18.8 µM | GI50 (SW-620 colon): 71.5 nM | TGI (SW-620 colon): 2290 nM | TGI (RPMI-8226 leukemia): 27.8 nM | GI50 (NCI-H522 lung): 0.0352 µM | TGI (NCI-H522 lung): 0.833 µM | GI50 (T-47D breast): 1830 nM | TGI (T-47D breast): 18.3 µM | TGI (A549 NSCLC): 14.2 µM | TGI (OVCAR-5 ovarian): 17 nM | TGI (EKVX NSCLC): 12.7 µM | TGI (IGROV1 ovarian): 1270 nM | GI50 (SF-268 CNS): 0.0249 µM | TGI (SF-268 CNS): 6.59 µM | GI50 (NCI/ADR-RES ovarian): 0.016 µM | TGI (NCI/ADR-RES ovarian): 59.6 nM | TGI (MALME-3M melanoma): 0.0349 µM | GI50 (MDA-MB-231 breast): 0.0353 µM | TGI (MDA-MB-231 breast): 5.25 µM | GI50 (COLO 205 colon): 16.9 nM | TGI (COLO 205 colon): 133 nM | GI50 (UACC-257 melanoma): 18.1 nM | TGI (UACC-257 melanoma): 81.4 nM | GI50 (U251 glioblastoma): 0.0255 µM | TGI (U251 glioblastoma): 11.9 µM | GI50 (LOX IMVI melanoma): 23.4 nM | TGI (LOX IMVI melanoma): 847 nM | GI50 (SN12C renal): 39.6 nM | TGI (SN12C renal): 761 nM | TGI (SNB-19 CNS): 122 nM | TGI (MCF7 breast): 13.3 µM | GI50 (NCI-H460 NSCLC): 20.9 nM | TGI (NCI-H460 NSCLC): 121 nM | TGI (UO-31 renal): 16.3 µM | GI50 (SNB-75 CNS): 0.0171 µM | TGI (SNB-75 CNS): 0.49 µM

Cc1c(F)c(N)c2c(=O)cc(-c3ccc(N)c(F)c3)oc2c1F
GI50 (HCT-15 colon): > 100000 nM | TGI (HCT-15 colon): > 100000 nM | GI50 (HCC-2998 colon): < 10 nM | TGI (HCC-2998 colon): > 100 µM | GI50 (MDA-MB-468 breast): < 10 nM | GI50 (MOLT-4 leukemia): 85.1 µM | TGI (MOLT-4 leukemia): > 100 µM | GI50 (OVCAR-3 ovarian): 25.1 nM | TGI (OVCAR-3 ovarian): 37.9 µM | GI50 (KM12 colon): 93 µM | TGI (KM12 colon): > 100000 nM | GI50 (BT-549 breast): 16.4 µM | TGI (BT-549 breast): 40.4 µM | GI50 (K-562 leukemia): 1750 nM | GI50 (MDA-MB-435 melanoma): 34.9 µM | TGI (MDA-MB-435 melanoma): > 100 µM | GI50 (HT29 colon): > 100000 nM | TGI (HT29 colon): > 100000 nM | GI50 (CAKI-1 renal): < 10 nM | TGI (CAKI-1 renal): > 100000 nM | GI50 (PC-3 prostate): > 100000 nM | TGI (PC-3 prostate): > 100 µM | GI50 (NCI-H226 lung): < 0.01 µM | GI50 (SW-620 colon): > 100000 nM | TGI (SW-620 colon): > 100000 nM | GI50 (SK-MEL-28 melanoma): > 100 µM | TGI (SK-MEL-28 melanoma): > 100 µM | GI50 (RPMI-8226 leukemia): 14.2 µM | TGI (RPMI-8226 leukemia): > 100000 nM | GI50 (NCI-H522 lung): 9.4 µM | TGI (NCI-H522 lung): 43.1 µM | GI50 (HL-60(TB) leukemia): 157 nM | TGI (HL-60(TB) leukemia): > 100 µM | GI50 (A549 NSCLC): 29.9 µM | TGI (A549 NSCLC): > 100 µM | GI50 (OVCAR-5 ovarian): < 10 nM | GI50 (A498 renal): < 10 nM | TGI (A498 renal): 130 nM | GI50 (EKVX NSCLC): 2980 nM | TGI (EKVX NSCLC): > 100 µM | GI50 (IGROV1 ovarian): < 10 nM | GI50 (NCI-H322M lung): 24.3 µM | TGI (NCI-H322M lung): > 100 µM | GI50 (SK-OV-3 ovarian): 29.3 µM | TGI (SK-OV-3 ovarian): > 100 µM | GI50 (SF-539 CNS): 28 µM | TGI (SF-539 CNS): > 100 µM | GI50 (SF-268 CNS): 23.2 µM | TGI (SF-268 CNS): 97.6 µM | GI50 (NCI/ADR-RES ovarian): 14.1 µM | TGI (NCI/ADR-RES ovarian): > 100000 nM | GI50 (MALME-3M melanoma): 28.6 µM | TGI (MALME-3M melanoma): 86.5 µM | GI50 (MDA-MB-231 breast): 26.7 µM | TGI (MDA-MB-231 breast): > 100 µM | GI50 (SR leukemia): 4.12 µM | TGI (SR leukemia): > 100 µM | GI50 (U251 glioblastoma): 18 µM | TGI (U251 glioblastoma): > 100 µM | GI50 (HS 578T breast): 10.7 µM | TGI (HS 578T breast): 29.5 µM | GI50 (HCT-116 colon): 28 µM | TGI (HCT-116 colon): > 100 µM | GI50 (LOX IMVI melanoma): > 100000 nM | TGI (LOX IMVI melanoma): > 100000 nM | GI50 (RXF 393 renal): 10.5 µM | TGI (RXF 393 renal): 31.5 µM | GI50 (MCF7 breast): < 10 nM | TGI (MCF7 breast): 0.0338 µM | GI50 (NCI-H460 NSCLC): < 10 nM | TGI (NCI-H460 NSCLC): > 100000 nM | GI50 (SK-MEL-5 melanoma): < 10 nM | TGI (SK-MEL-5 melanoma): > 100 µM | GI50 (SNB-75 CNS): 10.8 µM | TGI (SNB-75 CNS): 25.2 µM
